Converted amounts (≈) assume the structure as drawn. Where a SMILES comes first, the peptide text is derived from it. Bridges are numbered along the chain shown (N, C = ends). [ ]: non-standard residue; d: D form. The star is where a group is joined. Octanoyl = CCCCCCCC(=O)*; Dab = NCC[C@H](N)C(=O)O Bounds are passed on as bounds.

From ChEMBL document CHEMBL1156251, “Structure--activity relationships of polymyxin antibiotics” (J Med Chem, 2010) come the findings set out here.

Assay [1] deals with Pseudomonas aeruginosa. Briefly: Antimicrobial activity against Pseudomonas aeruginosa. The class given is functional, organism-based.
For assay [2], the system named is Salmonella enterica. Briefly: Antimicrobial activity against Salmonella enterica. The format is functional.
The test system of assay [3] is Escherichia coli. As to the kind of experiment: Antimicrobial activity against Escherichia coli. The class given is functional.
Assay [4] has as its system Lipopolysaccharide (LPS). As to the kind of experiment: Displacement of dansyl-PMB from LPS by isothermal titration calorimetry. Background: In ITC the heat of successive injections is recorded.

With `CC(=O)N[C@H](C(=O)N[C@@H](CCN)C(=O)N[C@H]1CCNC(=O)[C@H]([C@@H](C)O)NC(=O)[C@H](CCN)NC(=O)[C@H](CCN)NC(=O)[C@H](CC(C)C)NC(=O)[C@@H](CC(C)C)NC(=O)[C@H](CCN)NC1=O)[C@@H](C)O`, the values for the MIC in assay [1], in assay [2] and in assay [3] were 2 µM (≈ 1.94 µg/mL), greater than 512 µM and 128 µM (≈ 124 µg/mL), respectively.

As for `CC(=O)N[C@H](C(=O)N[C@@H](CCN)C(=O)N[C@H]1CCNC(=O)[C@H]([C@@H](C)O)NC(=O)[C@H](CCN)NC(=O)[C@H](CCN)NC(=O)[C@H](CC(C)C)NC(=O)[C@@H](Cc2ccccc2)NC(=O)[C@H](CCN)NC1=O)[C@@H](C)O`, the MIC (usually the lowest concentration that inhibits growth of the organism) was found to be 2 µM (≈ 2.01 µg/mL) in assay [1], 128 µM (≈ 129 µg/mL) in assay [2] and 32 µM (≈ 32.2 µg/mL) in assay [3].

`CCCCCCCCCCCCCC(=O)N[C@H](C(=O)N[C@@H](CCN)C(=O)N[C@H]1CCNC(=O)[C@H]([C@@H](C)O)NC(=O)[C@H](CCN)NC(=O)[C@H](CCN)NC(=O)[C@H](CC(C)C)NC(=O)[C@@H](Cc2ccccc2)NC(=O)[C@H](CCN)NC1=O)[C@@H](C)O`: the minimum inhibitory concentration (MIC) in assay [1], in assay [2] and in assay [3] was 4 µM (≈ 4.69 µg/mL) throughout.

For the compound `CC(C)C[C@@H]1NC(=O)[C@@H](CC(C)C)NC(=O)[C@H](CCN)NC(=O)[C@@H](NC(=O)[C@H](CCN)NC(=O)[C@@H](NC(=O)[C@H](CCN)NC(=O)CC23CC4CC(CC(C4)C2)C3)[C@@H](C)O)CCNC(=O)[C@H]([C@@H](C)O)NC(=O)[C@H](CCN)NC(=O)[C@H](CCN)NC1=O`, the figures for the MIC in assay [1], in assay [2] and in assay [3] were 1 µM (≈ 1.21 µg/mL), 1 µM (≈ 1.21 µg/mL) and 2 µM (≈ 2.41 µg/mL), respectively.

For `CC(C)C[C@@H]1NC(=O)[C@@H](CC(C)C)NC(=O)[C@H](CCN)NC(=O)[C@@H](NC(=O)[C@H](CCN)NC(=O)[C@@H](NC(=O)[C@H](CCN)NC(=O)Cc2ccc(-c3ccccc3)cc2)[C@@H](C)O)CCNC(=O)[C@H]([C@@H](C)O)NC(=O)[C@H](CCN)NC(=O)[C@H](CCN)NC1=O`, the MIC in assay [1] amounted to 1 µM (≈ 1.22 µg/mL); in assay [2], 2 µM (≈ 2.45 µg/mL); in assay [3], 1 µM (≈ 1.22 µg/mL).

For the compound `CC(C)C[C@@H]1NC(=O)[C@@H](Cc2ccccc2)NC(=O)[C@H](CCN)NC(=O)[C@@H](NC(=O)[C@H](CCN)NC(=O)[C@@H](NC(=O)[C@H](CCN)NC(=O)CCCC2CCCCC2)[C@@H](C)O)CCNC(=O)[C@H]([C@@H](C)O)NC(=O)[C@H](CCN)NC(=O)[C@H](CCN)NC1=O`, the MIC worked out at 1 µM (≈ 1.22 µg/mL) in assay [1], 0.5 µM (≈ 0.608 µg/mL) in assay [2] and 0.5 µM (≈ 0.608 µg/mL) in assay [3].

As for `CC(C)C[C@@H]1NC(=O)[C@@H](CC(C)C)NC(=O)[C@H](CCN)NC(=O)[C@@H](NC(=O)[C@H](CCN)NC(=O)[C@@H](NC(=O)[C@H](CCN)NC(=O)c2ccc3cc4ccccc4cc3c2)[C@@H](C)O)CCNC(=O)[C@H]([C@@H](C)O)NC(=O)[C@H](CCN)NC(=O)[C@H](CCN)NC1=O`, the MIC amounted to 2 µM (≈ 2.47 µg/mL) in assay [1], 2 µM (≈ 2.47 µg/mL) in assay [2] and 4 µM (≈ 4.93 µg/mL) in assay [3].

`CC(C)C[C@@H]1NC(=O)[C@@H](CC(C)C)NC(=O)[C@H](CCN)NC(=O)[C@@H](NC(=O)[C@H](CCN)NC(=O)[C@@H](NC(=O)[C@H](CCN)NC(=O)CCCC2CCCCC2)[C@@H](C)O)CCNC(=O)[C@H]([C@@H](C)O)NC(=O)[C@H](CCN)NC(=O)[C@H](CCN)NC1=O`: the results for the MIC in assay [1], in assay [2] and in assay [3] were 1 µM (≈ 1.18 µg/mL), 1 µM (≈ 1.18 µg/mL) and 2 µM (≈ 2.36 µg/mL), respectively.

With `CC(C)C[C@@H]1NC(=O)[C@@H](Cc2ccccc2)NC(=O)[C@H](CCN)NC(=O)[C@@H](NC(=O)[C@H](CCN)NC(=O)[C@@H](NC(=O)[C@H](CCN)NC(=O)CCCc2cc3ccc4cccc5ccc(c2)c3c45)[C@@H](C)O)CCNC(=O)[C@H]([C@@H](C)O)NC(=O)[C@H](CCN)NC(=O)[C@H](CCN)NC1=O`, the MIC in assay [1], in assay [2] and in assay [3] was 2 µM (≈ 2.67 µg/mL) throughout.

With `CCCCCCCC(=O)N[C@@H](CCNS(=O)(=O)c1cccc2c(N(C)C)cccc12)C(=O)N[C@H](C(=O)N[C@@H](CCN)C(=O)N[C@H]1CCNC(=O)[C@H]([C@@H](C)O)NC(=O)[C@H](CCN)NC(=O)[C@H](CCN)NC(=O)[C@H](CC(C)C)NC(=O)[C@@H](Cc2ccccc2)NC(=O)[C@H](CCN)NC1=O)[C@@H](C)O`, the MIC in assay [1], in assay [2] and in assay [3] was 1 µM (≈ 1.42 µg/mL) throughout.

In the case of `CC[C@H](C)[C@H](N)C(=O)N[C@@H](CCCCN)C(=O)N[C@H](C(=O)N[C@@H](CCCCN)C(=O)N[C@@H](CCCCN)C(=O)N[C@@H](Cc1ccccc1)C(=O)N[C@@H](CC(C)C)C(=O)N[C@@H](CCCCN)C(=O)N[C@@H](CCCCN)C(=O)N[C@H](C(=O)O)[C@@H](C)O)[C@@H](C)O` (H-IKTKKFLKKT-OH), the Ka in assay [4] is 0.2 10^5/M.

`CCCCCCCC(=O)N[C@@H](C)C(=O)N[C@H](C(=O)N[C@@H](CCN)C(=O)N[C@H]1CCNC(=O)[C@H]([C@@H](C)O)NC(=O)[C@H](CCN)NC(=O)[C@H](CCN)NC(=O)[C@H](CC(C)C)NC(=O)[C@@H](Cc2ccccc2)NC(=O)[C@H](CCN)NC1=O)[C@@H](C)O` (Octanoyl-AT[Dab][Dab][Dab][dF]L[Dab][Dab]T; lactam 4-C): the MIC in assay [1], in assay [2] and in assay [3] was 2 µM (≈ 2.32 µg/mL) throughout.

Turning to `CCCCCCCC(=O)N[C@@H](CCN)C(=O)N[C@@H](C)C(=O)N[C@@H](CCN)C(=O)N[C@H]1CCNC(=O)[C@H]([C@@H](C)O)NC(=O)[C@H](CCN)NC(=O)[C@H](CCN)NC(=O)[C@H](CC(C)C)NC(=O)[C@@H](Cc2ccccc2)NC(=O)[C@H](CCN)NC1=O` (Octanoyl-[Dab]A[Dab][Dab][Dab][dF]L[Dab][Dab]T; lactam 4-C), the MIC in assay [1] was found to be 2 µM (≈ 2.32 µg/mL); in assay [2], 4 µM (≈ 4.64 µg/mL); in assay [3], 8 µM (≈ 9.28 µg/mL).

In the case of `CCCCCCCC(=O)N[C@@H](CCN)C(=O)N[C@H](C(=O)N[C@@H](C)C(=O)N[C@H]1CCNC(=O)[C@H]([C@@H](C)O)NC(=O)[C@H](CCN)NC(=O)[C@H](CCN)NC(=O)[C@H](CC(C)C)NC(=O)[C@@H](Cc2ccccc2)NC(=O)[C@H](CCN)NC1=O)[C@@H](C)O` (Octanoyl-[Dab]TA[Dab][Dab][dF]L[Dab][Dab]T; lactam 4-C), the results for the MIC in assay [1], in assay [2] and in assay [3] were 2 µM (≈ 2.32 µg/mL), 1 µM (≈ 1.16 µg/mL) and 1 µM (≈ 1.16 µg/mL), respectively.

`CC(C)C[C@@H]1NC(=O)[C@@H](Cc2ccccc2)NC(=O)[C@H](CCN)NC(=O)[C@@H](NC(=O)[C@H](CCN)NC(=O)[C@@H](NC(=O)[C@H](CCN)NC(=O)CC23CC4CC(CC(C4)C2)C3)[C@@H](C)O)CCNC(=O)[C@H]([C@@H](C)O)NC(=O)[C@H](CCN)NC(=O)[C@H](CCN)NC1=O` [1-ADAMANTANEACETIC ACID POLYMIXIN B]: the MIC is 1 µM (≈ 1.24 µg/mL) in assay [1], 0.5 µM (≈ 0.62 µg/mL) in assay [2] and 1 µM (≈ 1.24 µg/mL) in assay [3].

As for `CC(C)C[C@@H]1NC(=O)[C@@H](Cc2ccccc2)NC(=O)[C@H](CCN)NC(=O)[C@@H](NC(=O)[C@H](CCN)NC(=O)[C@@H](NC(=O)[C@H](CCN)NC(=O)c2ccc3ccccc3c2)[C@@H](C)O)CCNC(=O)[C@H]([C@@H](C)O)NC(=O)[C@H](CCN)NC(=O)[C@H](CCN)NC1=O` [2-ANTHRACENE CARBOXYLIC ACID POLYMIXIN B], the MIC is 2 µM (≈ 2.43 µg/mL) in assay [1], 2 µM (≈ 2.43 µg/mL) in assay [2] and 4 µM (≈ 4.87 µg/mL) in assay [3].

Take `CC(C)C[C@@H]1NC(=O)[C@@H](Cc2ccccc2)NC(=O)[C@H](CCN)NC(=O)[C@@H](NC(=O)[C@H](CCN)NC(=O)[C@@H](NC(=O)[C@H](CCN)NC(=O)Cc2ccc(-c3ccccc3)cc2)[C@@H](C)O)CCNC(=O)[C@H]([C@@H](C)O)NC(=O)[C@H](CCN)NC(=O)[C@H](CCN)NC1=O` [4-BIPHENYL ACETIC ACID POLYMIXIN B]: the MIC amounted to 1 µM (≈ 1.26 µg/mL) in assay [1], 1 µM (≈ 1.26 µg/mL) in assay [2] and 0.5 µM (≈ 0.629 µg/mL) in assay [3].

With `CC(C)C[C@@H]1NC(=O)[C@@H](Cc2ccccc2)NC(=O)[C@H](CCN)NC(=O)[C@@H](NC(=O)[C@H](CCN)NC(=O)[C@@H](NC(=O)[C@H](CCN)NC(=O)C2CCCCCCCCCCC2)[C@@H](C)O)CCNC(=O)[C@H]([C@@H](C)O)NC(=O)[C@H](CCN)NC(=O)[C@H](CCN)NC1=O` [CYCLODEDECANE CARBOXYLIC ACID POLYMIXIN B], the minimal inhibitory concentration (MIC) in assay [1], in assay [2] and in assay [3] was 2 µM (≈ 2.52 µg/mL) throughout.

Turning to `CC(C)C[C@@H]1NC(=O)[C@@H](CC(C)C)NC(=O)[C@H](CCN)NC(=O)[C@@H](NC(=O)[C@H](CCN)NC(=O)[C@@H](NC(=O)[C@H](CCN)NC(=O)C2CCCCCCCCCCC2)[C@@H](C)O)CCNC(=O)[C@H]([C@@H](C)O)NC(=O)[C@H](CCN)NC(=O)[C@H](CCN)NC1=O` [CYCLODODECANE CARBOXYLIC ACID COLISTIN], the results for the MIC in assay [1], in assay [2] and in assay [3] were 2 µM (≈ 2.45 µg/mL), 2 µM (≈ 2.45 µg/mL) and 4 µM (≈ 4.89 µg/mL), respectively.

In the case of `CC(C)C[C@@H]1NC(=O)[C@@H](CC(C)C)NC(=O)[C@H](CCN)NC(=O)[C@@H](NC(=O)[C@H](CCN)NC(=O)[C@@H](NC(=O)[C@H](CCN)NC(=O)C(c2ccccc2)C2CCCC2)[C@@H](C)O)CCNC(=O)[C@H]([C@@H](C)O)NC(=O)[C@H](CCN)NC(=O)[C@H](CCN)NC1=O` (some centres undefined) [CYCLOPENTYLPHENYL ACETIC ACID COLISTIN], the MIC in assay [1] was 2 µM (≈ 2.43 µg/mL); in assay [2] it was 16 µM (≈ 19.4 µg/mL); in assay [3], 16 µM (≈ 19.4 µg/mL).

Take `CC(C)C[C@@H]1NC(=O)[C@@H](Cc2ccccc2)NC(=O)[C@H](CCN)NC(=O)[C@@H](NC(=O)[C@H](CCN)NC(=O)[C@@H](NC(=O)[C@H](CCN)NC(=O)C(c2ccccc2)C2CCCC2)[C@@H](C)O)CCNC(=O)[C@H]([C@@H](C)O)NC(=O)[C@H](CCN)NC(=O)[C@H](CCN)NC1=O` (some centres undefined) [CYCLOPENTYLPHENYL ACETIC ACID POLYMIXIN B]: the MIC in assay [1] was found to be 2 µM (≈ 2.5 µg/mL); in assay [2], 8 µM (≈ 10 µg/mL); in assay [3] it was 8 µM (≈ 10 µg/mL).

For the compound `CCCCCCCC(=O)N[C@H](C(=O)N[C@@H](CCN)C(=O)N[C@H]1CCNC(=O)[C@H]([C@@H](C)O)NC(=O)[C@H](CCN)NC(=O)[C@H](CCN)NC(=O)[C@H](CC(C)C)NC(=O)[C@@H](CC(C)C)NC(=O)[C@H](CCN)NC1=O)[C@@H](C)O` [Octanoyl colistin nonapeptide], the MIC in assay [1] stood at 2 µM (≈ 2.11 µg/mL); in assay [2] it was 4 µM (≈ 4.22 µg/mL); in assay [3] it was 1 µM (≈ 1.06 µg/mL).
